Laboratory results as given in US20140200233A1, “USE OF MAD2L2 AS A STRATIFICATION MARKER IN THE TREATMENT OF BREAST TUMOURS WITH NOVEL PAN-CDK INHIBITORS” (BAYER INTELLECTUAL PROPERTY GMBH, priority 2011, published 2014).

Legend:
Format in all cases: cell-based
[1] = tested on: KPL-1; assay: Proliferation assay, Method 2 (Vybrant MTT); conditions: Homo sapiens, KPL-1 breast tumour cell line
[2] = tested on: MDA-MB-453; assay: Proliferation assay, Method 2 (Vybrant MTT); conditions: Homo sapiens, MDA-MB-453 breast tumour cell line
[3] = tested on: Hs 578T; assay: Proliferation assay, Method 2 (Vybrant MTT); conditions: Homo sapiens, Hs 578T breast tumour cell line
[4] = tested on: MDA-MB-231; assay: Proliferation assay, Method 2 (Vybrant MTT); conditions: Homo sapiens, MDA-MB-231 breast tumour cell line
[5] = tested on: MDA-MB-468; assay: Proliferation assay, Method 2 (Vybrant MTT); conditions: Homo sapiens, MDA-MB-468 breast tumour cell line
[6] = tested on: ZR-75-1; assay: Proliferation assay, Method 2 (Vybrant MTT); conditions: Homo sapiens, ZR-75-1 breast tumour cell line
[7] = tested on: T-47D; assay: Proliferation assay, Method 2 (Vybrant MTT); conditions: Homo sapiens, T47D, T-47D breast tumour cell line
[8] = tested on: MDA-MB-435s; assay: Proliferation assay, Method 2 (Vybrant MTT); conditions: Homo sapiens, MDA-MB-435s breast tumour cell line
[9] = tested on: DU-4475; assay: Proliferation assay, Method 2 (Vybrant MTT); conditions: Homo sapiens, DU-4475 breast tumour cell line
[10] = tested on: BT-20; assay: Proliferation assay, Method 2 (Vybrant MTT); conditions: Homo sapiens, BT-20 breast tumour cell line
[11] = tested on: BT-474; assay: Proliferation assay, Method 2 (Vybrant MTT); conditions: Homo sapiens, BT-474 breast tumour cell line
[12] = tested on: EVSA-T; assay: Proliferation assay, Method 2 (Vybrant MTT); conditions: Homo sapiens, EVSA-T breast tumour cell line
[13] = tested on: BT-549; assay: Proliferation assay, Method 2 (Vybrant MTT); conditions: Homo sapiens, BT-549 breast tumour cell line
[14] = tested on: 786-O; assay: Proliferation assay, Method 1 (crystal violet); conditions: Homo sapiens, 786-0, 96 h, 786-O renal carcinoma cell line, 4 days
Experimental: (§1) This assay was used for the following cell lines: MCF 10A, SK-BR-3, MCF7, HCT 116, HT-29, SW480, Caco-2, MIAPaCa-2, DU145, PC3, HeLa, Caki2, 786-0, A-375, NCI-H460, NCI-H69, NCI-H1975, A549.
(§2) Cultivated human tumour cells (originally obtained from ATCC, HeLa-MaTu and HeLa-MaTu-ADR, originally obtained from Epo GmbH, Berlin) were plated in a density of from 1000 to 5000 cells/measurement point, depending on the growth rate of the cell line, in a 96-well multititre plate in 200 μl of growth medium (DMEM/HAMS F12, 2 mM L-glutamine, 10% foetal calf serum). After 24 hours, the cells of one plate (zero-point plate) were stained with crystal violet (see below), while the medium of the other plates was replaced by fresh culture medium (200 μl) with added test substances in various concentrations (0 μM, and in the range of 0.01-30 μM; the final concentration of the solvent dimethyl sulphoxide was 0.5%). The cells were incubated in the presence of the test substances for 4 days. Cell proliferation was determined by staining the cells with crystal violet: the cells were fixated by addition of 20 μl/measuring point of an 11% strength glutaraldehyde solution for 15 min at room temperature. After the fixated cells had been washed three times with water, the plates were dried at room temperature. The cells were stained by addition of 100 μl/measuring point of a 0.1% strength crystal violet solution (pH adjusted to pH 3 by addition of acetic acid). After the stained cells had been washed three times with water, the plates were dried at room temperature. The dye was dissolved by addition of 100 μl/measuring point of a 10% strength acetic acid solution. The absorption was determined photometrically at a wavelength of 595 nm. The change in percent of the cell growth was calculated by normalizing the measured values to the absorption values of the zero-point plate (=0%) and the absorption of the untreated (0 μM) cells (=100%). The measured data were normalized to 0% inhibition (cell proliferation without inhibitor) and 100% inhibition (zero-point plate). The IC50 values were determined using a 4-parameter fit with the aid of proprietary software.

[15] = tested on: A-375; assay: Proliferation assay, Method 1 (crystal violet); conditions: Homo sapiens, 96 h, A-375 melanoma cell line, 4 days
Experimental: as §1, §2

[16] = tested on: Caco-2; assay: Proliferation assay, Method 1 (crystal violet); conditions: Homo sapiens, 96 h, Caco-2 colon carcinoma cell line, 4 days
Experimental: as §1, §2

[17] = tested on: Caki2; assay: Proliferation assay, Method 1 (crystal violet); conditions: Homo sapiens, CAKI-2, 96 h, Caki2 renal carcinoma cell line, 4 days
Experimental: as §1, §2

[18] = tested on: DU145; assay: Proliferation assay, Method 1 (crystal violet); conditions: Homo sapiens, DU-145, 96 h, DU145 prostate carcinoma cell line, 4 days
Experimental: as §1, §2

[19] = tested on: HCT 116; assay: Proliferation assay, Method 1 (crystal violet); conditions: Homo sapiens, 96 h, HCT 116 colon carcinoma cell line, 4 days
Experimental: as §1, §2

[20] = tested on: HT-29; assay: Proliferation assay, Method 1 (crystal violet); conditions: Homo sapiens, 96 h, HT-29 colon carcinoma cell line, 4 days
Experimental: as §1, §2

[21] = tested on: HeLa; assay: Proliferation assay, Method 1 (crystal violet); conditions: Homo sapiens, 96 h, HeLa cervix carcinoma cell line, 4 days
Experimental: as §1, §2

[22] = tested on: MCF7; assay: Proliferation assay, Method 1 (crystal violet); conditions: Homo sapiens, 96 h, MCF7 breast tumour cell line, 4 days
Experimental: as §1, §2

[23] = tested on: MIAPaCa-2; assay: Proliferation assay, Method 1 (crystal violet); conditions: Homo sapiens, MIA PaCa-2, 96 h, MIAPaCa-2 pancreas carcinoma cell line, 4 days
Experimental: as §1, §2

[24] = tested on: PC3; assay: Proliferation assay, Method 1 (crystal violet); conditions: Homo sapiens, PC-3, 96 h, PC3 prostate carcinoma cell line, 4 days
Experimental: as §1, §2

[25] = tested on: SK-BR-3; assay: Proliferation assay, Method 1 (crystal violet); conditions: Homo sapiens, 96 h, SK-BR-3 breast tumour cell line, 4 days
Experimental: as §1, §2

[26] = tested on: SW480; assay: Proliferation assay, Method 1 (crystal violet); conditions: Homo sapiens, 96 h, SW480 colon carcinoma cell line, 4 days
Experimental: as §1, §2

[27] = tested on: A549; assay: Proliferation assay (listed under Method 1 and Method 2); conditions: Homo sapiens; A549 (non-small-cell lung carcinoma); method 1 or 2
Experimental: as §1, §2

[28] = tested on: MCF 10A; assay: as above; conditions: Homo sapiens; MCF 10A breast cell line; method 1 or 2
Experimental: as §1, §2

[29] = tested on: NCI-H1975; assay: as above; conditions: Homo sapiens; NCI-H1975 (non-small-cell lung carcinoma); method 1 or 2
Experimental: as §1, §2

[30] = tested on: NCI-H460; assay: as above; conditions: Homo sapiens; NCI-H460 (non-small-cell lung carcinoma); method 1 or 2
Experimental: as §1, §2

[31] = tested on: NCI-H69; assay: as above; conditions: Homo sapiens; NCI-H69 (small-cell lung carcinoma); method 1 or 2
Experimental: as §1, §2

[32] = tested on: NCI-H810; assay: Proliferation assay, Method 2 (Vybrant MTT); conditions: Homo sapiens, NCI-H810 (non-small-cell lung carcinoma)
[33] = tested on: NCI-H441; assay: Proliferation assay, Method 2 (Vybrant MTT); conditions: Homo sapiens, NCI-H441 (papillary lung carcinoma)
[34] = tested on: NCI-H1838; assay: Proliferation assay, Method 2 (Vybrant MTT); conditions: Homo sapiens, NCI-H1838 (non-small-cell lung carcinoma)
[35] = tested on: NCI-H2030; assay: Proliferation assay, Method 2 (Vybrant MTT); conditions: Homo sapiens, NCI-H2030 (non-small-cell lung carcinoma)
[36] = tested on: NCI-H358; assay: Proliferation assay, Method 2 (Vybrant MTT); conditions: Homo sapiens, NCI-H358 (non-small-cell lung carcinoma)
[37] = tested on: NCI-H1793; assay: Proliferation assay, Method 2 (Vybrant MTT); conditions: Homo sapiens, NCI-H1793 (non-small-cell lung carcinoma)
[38] = tested on: NCI-H1048; assay: Proliferation assay, Method 2 (Vybrant MTT); conditions: Homo sapiens, NCI-H1048 (small-cell lung carcinoma)
[39] = tested on: SK-MES-1; assay: Proliferation assay, Method 2 (Vybrant MTT); conditions: Homo sapiens, SK-MES-1 (squamous-cell carcinoma)
[40] = tested on: NCI-H2347; assay: Proliferation assay, Method 2 (Vybrant MTT); conditions: Homo sapiens, NCI-H2347 (non-small-cell lung carcinoma)
[41] = tested on: NCI-H23; assay: Proliferation assay, Method 2 (Vybrant MTT); conditions: Homo sapiens, NCI-H23 (non-small-cell lung carcinoma)
[42] = tested on: NCI-H2170; assay: Proliferation assay, Method 2 (Vybrant MTT); conditions: Homo sapiens
[43] = tested on: NCI-H2228; assay: Proliferation assay, Method 2 (Vybrant MTT); conditions: Homo sapiens, NCI-H2228 (non-small-cell lung carcinoma)
[44] = tested on: NCI-H661; assay: Proliferation assay, Method 2 (Vybrant MTT); conditions: Homo sapiens, NCI-H661 (non-small-cell lung carcinoma)
[45] = tested on: NCI-H1703; assay: Proliferation assay, Method 2 (Vybrant MTT); conditions: Homo sapiens, NCI-H1703 (non-small-cell lung carcinoma)
[46] = tested on: NCI-H1581; assay: Proliferation assay, Method 2 (Vybrant MTT); conditions: Homo sapiens, NCI-H1581 (non-small-cell lung carcinoma)
[47] = tested on: NCI-H226; assay: Proliferation assay, Method 2 (Vybrant MTT); conditions: Homo sapiens, NCI-H226 (mesothelioma)
[48] = tested on: NCI-H1563; assay: Proliferation assay, Method 2 (Vybrant MTT); conditions: Homo sapiens, NCI-H1563 (non-small-cell lung carcinoma)
[49] = tested on: NCI-H522; assay: Proliferation assay, Method 2 (Vybrant MTT); conditions: Homo sapiens, NCI-H522 (non-small-cell lung carcinoma)
[50] = tested on: ChaGo-K-1; assay: Proliferation assay, Method 2 (Vybrant MTT); conditions: Homo sapiens, ChaGo-K-1 (undifferentiated bronchial carcinoma)
[51] = tested on: NCI-H1437; assay: Proliferation assay, Method 2 (Vybrant MTT); conditions: Homo sapiens, NCI-H1437 (non-small-cell lung carcinoma)

Which results are given for `C[C@@H](O)[C@@H](C)Oc1nc(Nc2ccc([S@](=N)(=O)C3CC3)cc2)ncc1C(F)(F)F` [Compound A, (2R,3R)-3-{[2-{[4-(R-cyclopropylsulphonimidoyl)phenyl]amino}-5-(trifluoromethyl)pyrimidin-4-yl]oxy}butan-2-ol]?
IC50 [1]: 6.44 nM; IC50 [2]: 15.1 nM; IC50 [3]: 16.8 nM; IC50 [4]: 20.2 nM; IC50 [5]: 28.8 nM; IC50 [6]: 32.5 nM; IC50 [7]: 33.8 nM; IC50 [8]: 36.4 nM; IC50 [9]: 37.3 nM; IC50 [10]: 38.1 nM; IC50 [11]: 42.6 nM; IC50 [12]: 45 nM; IC50 [13]: 84.1 nM; IC50 [14]: 20 nM; IC50 [15]: 14 nM; IC50 [16]: 16 nM; IC50 [17]: 26 nM; IC50 [18]: 8 nM; IC50 [19]: 18 nM; IC50 [20]: 29 nM; IC50 [21]: 12 nM; IC50 [22]: 15 nM; IC50 [23]: 21 nM; IC50 [24]: 25 nM; IC50 [25]: 13 nM; IC50 [26]: 15 nM; IC50 [27]: 31 nM; IC50 [28]: 20 nM; IC50 [29]: 24 nM; IC50 [30]: 27 nM; IC50 [31]: 27 nM; IC50 [32]: 9.01 nM; IC50 [33]: 10 nM; IC50 [34]: 15.9 nM; IC50 [35]: 17.7 nM; IC50 [36]: 19.4 nM; IC50 [37]: 22.5 nM; IC50 [38]: 25 nM; IC50 [39]: 26.5 nM; IC50 [40]: 28 nM; IC50 [41]: 45.4 nM; IC50 [42]: 48.7 nM; IC50 [43]: 52.1 nM; IC50 [44]: 53.1 nM; IC50 [45]: 53.6 nM; IC50 [46]: 53.8 nM; IC50 [47]: 54.6 nM; IC50 [48]: 59.1 nM; IC50 [49]: 65.4 nM; IC50 [50]: 69.4 nM; IC50 [51]: 69.9 nM
